“And” between values parts separate entries of the source, which are not always exact repeats. Equal entries are not always repeated. Marks after values point to notes of the source that are not given here.
Assays:
[1] = surfactants of Table 2; cited from earlier work
[2] = Interaction of 1% w/v lecithin with individual polyphenols, depletion from solution by HPLC; conditions: pH 2.43, anthocyanins depleted from single-strength cranberry juice, others from aqueous solution
Procedure: Aqueous polyphenol solutions near saturation were prepared by dissolving the individual polyphenols in 50 mL ultrapure water. Depends on their solubility in water, the polyphenols solutions were made in different concentrations. […] The pH of the solution was then adjusted to ˜2.43 using 6 M HCl in order to approximate the pH of juice. The adjusted solution was centrifuged at 3220×g for 20 min to remove any undissolved solids. Next, 1% w/v lecithin was added to 10 mL of the supernatant containing the polyphenols or the phenolic acids. The mixture was vortexed for 1 min and then centrifuged at 3220×g for 20 min to pellet any precipitate. The supernatant was transferred to a 2 mL microcentrifuge tube and was centrifuged for another 20 min at 21130×g before HPLC analysis. The depletion of individual polyphenol content expressed as a percent was determined according to the following equation: Polyphenol and phenolic acid content remaining in the supernatant were quantitated by reverse phase HPLC using a Dionex Ultimate 3000 HPLC equipped with an LPG-3400 quaternary pump, a WPS-3000 analytical autosampler, a DAD-3000 diode array detector, and an FLD-3100 fluorescence detector. […] Separation was with formic acid:water (5:95, v/v) (A) and methanol (B). The flow rate was set to 1 mL/min. The gradient was initially 5% B for 1 min, then increased to 35% B over 39 min, from 35% to 95% B over the next 10 min, and held constant at 95% B for 5 min, then decreased to 5% B over 2 min, and re-equilibrated at 5% B for the remaining 8 min. The column oven was set to 30° C. The absorbance was monitored at 254, 280, 370 and 520 nm. […] The gallic acid peaks in the 280 nm chromatogram was quantitated on the basis of authentic external standards. […] The flow rate was set to 0.5 mL/min. The gradient began at 15% B for 2 min, increased to 90% B over 6 min, then decreased to 15% B over 1 min and re-equilibrated at 15% B for the remaining 1 min. The column oven was set to 25° C. We collected absorbance data at 254, 280, 370 and 520 nm. All the peaks were identified in comparison to authentic external standards.

[3] = values from literature; cited from earlier work
[4] = Depletion of monomeric anthocyanins in diluted cranberry juice by surfactants, lecithins or phospholipids (pH differential method)
Procedure: Classic Mash Cranberry Juice Concentrate with essence returned was received frozen from the supplier (Ocean Spray Cranberries Inc., Lakeville-Middleboro, Mass., U.S.A.). The concentrate came at 50.0° Brix from manufacturer. It was immediately thawed, aliquoted and stored at −20° C. until use. Prior to experiment use, the concentrate was thawed, brought to room temperature, and diluted to 7.5° Brix according to the manufacture specification.
Individual surfactants/phospholipids were added to 10 mL juice samples at a final concentration of 0.01 M. Varying amounts of lecithin were added to 10 mL juice samples at 0.05, 0.1, 0.5, 1, 2, 3, 4, or 5% w/v. Lecithin with different HLB values were added to 10 mL juice samples at 1, 2, 3, 4, or 5% w/v. All mixtures were then vortexed for 3 min and then centrifuged at 3220×g for 20 min. The centrifugation step was repeated with the supernatants. All procedures were carried out at ambient temperatures unless otherwise specified.
Monomeric anthocyanin (MA) content was determined by the AOAC pH differential method. Samples were placed in 96-well plates (Thermo Scientific) for spectral acquisition using a SpectraMax Plus Microplate Reader (Molecular Devices, Sunnyvale, Calif., U.S.A.). We used the SoftMax Pro 5.4.4 to scale for pathlength (Molecular Devices, Sunnyvale, Calif., U.S.A.). Juice samples were diluted such that the absorbance at 520 nm was within the linear range of the instrument. Triplicate samples were analyzed, and the average values are reported.
The depletion of MA expressed as a percent was determined according to the following equation: […]

[5] = cited from earlier work; for pka: phospholipid components of lecithin
[6] = 0.01M phospholipid in cranberry juice

Row | Molecule | HLB value [1] | Depletion % [2] | further results
1 | CCCCCCCC/C=C\CCCCCCCC(=O)OCC(O)CO (racemic) [glycerol monooleate] | 3.4 |  | 
2 | CCCCCCCCCCCCCCCCCC(=O)OCC(O)CO (racemic) [glycerol monostearate] | 3.8 |  | 
3 | Oc1cc(O)c2c(c1)O[C@H](c1ccc(O)c(O)c1)[C@@H](O)C2 [(+)-catechin] |  | 18.4% | Depletion % ([2]; listed as (+)-Catechin): 18.4±0.5%; Log P [3]: 0.51^†
4 | Oc1cc(O)c2cc(O[C@@H]3OC[C@H](O)[C@H](O)[C@H]3O)c(-c3ccc(O)c(O)c3)[o+]c2c1 [cyanidin-3-O-arabinoside] |  | 16.0% | Depletion % ([2]; listed as cyanidin-3-O-arabinose): 16.0±6.5%
5 | OC[C@H]1O[C@@H](Oc2cc3c(O)cc(O)cc3[o+]c2-c2ccc(O)c(O)c2)[C@H](O)[C@@H](O)[C@H]1O [cyanidin-3-O-galactoside] |  | 49.1±3.5% and 49.1% | 
6 | OC[C@H]1O[C@@H](Oc2cc3c(O)cc(O)cc3[o+]c2-c2ccc(O)c(O)c2)[C@H](O)[C@@H](O)[C@@H]1O [cyanidin-3-O-glucoside] |  | 45.0% | Depletion % ([2]; listed as Cyanidin-3-O-glucoside): 45.0±3.5%; Log P [3]: 0.39^†
7 | Oc1cc(O)c2cc(O[C@H]3OC[C@H](O)[C@H](O)[C@H]3O)c(-c3cc(O)c(O)c(O)c3)[o+]c2c1 [delphinidin-3-O-arabinoside] |  | 11.1% | Depletion % ([2]; listed as Delphinidin-3-O-arabinose): 11.1±4.9%
8 | O=C(O)c1cc(O)c(O)c(O)c1 [gallic acid] |  | did not induce precipitation of lecithin | 
9 | O=c1c(-c2ccc(O)cc2)coc2cc(O)cc(O)c12 [genistein] |  | 61.0% | Depletion % ([2]; listed as Genistein): 61.0±3.8%
10 | CCCCCCCC/C=C\CCCCCCCC(=O)OCC(CO)OC(=O)CCCCCCC/C=C\CCCCCCCC (stereo not shown) [glycerol dioleate] | 1.9 |  | 
11 | CCCCCCCCCCCC(=O)OCC(O)CO (stereo not shown) [glycerol monolaurate] | 5.2 |  | 
12 | CCCCCCCC/C=C\CCCCCCCC(=O)O [oleic acid] | 1 |  | 
13 | COc1cc(-c2[o+]c3cc(O)cc(O)c3cc2O[C@@H]2O[C@H](CO)[C@@H](O)[C@H](O)[C@H]2O)ccc1O [peonidin-3-O-glucoside] |  | 43.0±4.0% and 43.0% | 
14 | O=c1c(O[C@@H]2O[C@H](CO)[C@H](O)[C@H](O)[C@H]2O)c(-c2ccc(O)c(O)c2)oc2cc(O)cc(O)c12 [quercetin-3-O-galactoside] |  | 35.4% | Depletion % ([2]; listed as Quercetin-3-O-galactoside): 35.4±1.0%
15 | O=c1c(O)c(-c2ccc(O)c(O)c2)oc2cc(O)cc(O)c12 [quercetin] |  | 41.3% | Depletion % ([2]; listed as Quercetin): 41.3±1.8%; Log P [3]: 1.82 ± 0.32
16 | Oc1ccc(C=Cc2cc(O)cc(O)c2)cc1 [resveratrol] |  |  | Log P [3]: 2.57^†
17 | CCCCCCCCCCCCOS(=O)(=O)[O-].[Na+] [sodium dodecyl sulfate] | 40 |  | 
18 | CCCCCCCC/C=C\CCCCCCCC(=O)[O-].[Na+] [sodium oleate] | 18 |  | 
19 | L-a-phosphatidylinositol (soy) [PI] |  |  | Depletion % of monomeric anthocyanins [4, 6]: 41.4±8.5% and 41.4 ± 8.5^a %; Depletion % of monomeric anthocyanins ([4]; 0.01M phospholipid in cranberry juice, listed as Phosphatidylinositol (PI)): 41.4±8.5%; pka [5]: 2.5
20 | Phosphatidylcholine (soy) [PC] |  |  | Depletion % of monomeric anthocyanins [4, 6]: 6.69±3.57% and 6.69 ± 3.6^b %; pka [5]: 1.0
21 | Phosphatidylethanolamine (soy) [PE] |  |  | Depletion % of monomeric anthocyanins [4, 6]: 10.4±2.5% and 10.4 ± 2.5^b %; pKa of the amino group [5]: about 9.5; pka [5]: 1.7
22 | hexaglycerol dioleate | 9 |  | 
23 | peonidin-3-O-arabinoside |  | 10.1% | Depletion % ([2]; listed as peonidin-3-O-arabinose): 10.1±6.3%
24 | peonidin-3-O-galactoside |  | 42.2% | Depletion % ([2]; listed as Peonidin-3-O-galactoside): 42.2±4.1%
25 | sodium stearoyl lactylate | 5.1 |  | 
26 | sorbitan monostearate | 4.7 |  | 
27 | sorbitan tristearate [sorbitan tristearate (Span 65)] |  |  | Depletion % of monomeric anthocyanins ([4]; 0.01M surfactants in diluted cranberry juice): 2.85%; Depletion % of monomeric anthocyanins ([4]; 0.01M surfactants in diluted cranberry juice, listed as sorbitan tristearate): no significant changes
28 | triglycerol monostearate | 7 |  | 
